# Data as given in PubChem BioAssay (NCI).
#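 Values below derive from 48-hour exposures of cells grown in 96-well plates, with endpoints linearly interpolated between the two concentrations bracketing the appropriate inhibition level. The concentration for 50% growth inhibition is given as GI50. The concentration for full growth arrest is given as TGI.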
# System: T-47D breast
# Assay: NCI tumour cell line growth inhibition, 48 h
Compound,TGI,GI50
CN1c2ccc(Cl)cc2C(=O)NC1c1ccc([N+](=O)[O-])s1 (centres undefined),55 µM,–
c1cc(CNC23CC4CC(CC(C4)C2)C3)cc(C[N+](Cc2cccc(CNC34CC5CC(CC(C5)C3)C4)c2)(Cc2cccc(CNC34CC5CC(CC(C5)C3)C4)c2)Cc2cccc(CNC34CC5CC(CC(C5)C3)C4)c2)c1 (centres undefined),28.1 µM,5.59 µM
CN(C)C(=O)c1cc2cnc(Nc3ccc(-c4csc5c(=S)cc(N6CCOCC6)oc45)cc3)nc2n1C1CCCC1,> 50 µM,0.198 µM
COC1=CC(=O)c2nc(-c3cccc(C)n3)[nH]c2C1=O,58.1 µM,15.8 µM

# System: SR leukemia
# Assay: NCI tumour cell line growth inhibition, 48 h
Compound,TGI,GI50
CN1c2ccc(Cl)cc2C(=O)NC1c1ccc([N+](=O)[O-])s1 (centres undefined),35.1 µM,–
c1cc(CNC23CC4CC(CC(C4)C2)C3)cc(C[N+](Cc2cccc(CNC34CC5CC(CC(C5)C3)C4)c2)(Cc2cccc(CNC34CC5CC(CC(C5)C3)C4)c2)Cc2cccc(CNC34CC5CC(CC(C5)C3)C4)c2)c1 (centres undefined),209 µM,6.22 µM
CN(C)C(=O)c1cc2cnc(Nc3ccc(-c4csc5c(=S)cc(N6CCOCC6)oc45)cc3)nc2n1C1CCCC1,> 50 µM,0.145 µM
COC1=CC(=O)c2nc(-c3cccc(C)n3)[nH]c2C1=O,> 100 µM,30.6 µM

# System: TK-10 renal
# Assay: NCI tumour cell line growth inhibition, 48 h
Compound,TGI,GI50
CN1c2ccc(Cl)cc2C(=O)NC1c1ccc([N+](=O)[O-])s1 (centres undefined),48.5 µM,–
c1cc(CNC23CC4CC(CC(C4)C2)C3)cc(C[N+](Cc2cccc(CNC34CC5CC(CC(C5)C3)C4)c2)(Cc2cccc(CNC34CC5CC(CC(C5)C3)C4)c2)Cc2cccc(CNC34CC5CC(CC(C5)C3)C4)c2)c1 (centres undefined),30 µM,7.75 µM
CN(C)C(=O)c1cc2cnc(Nc3ccc(-c4csc5c(=S)cc(N6CCOCC6)oc45)cc3)nc2n1C1CCCC1,> 50 µM,0.987 µM
COC1=CC(=O)c2nc(-c3cccc(C)n3)[nH]c2C1=O,40.2 µM,19.4 µM

# System: HT29 colon
# Assay: NCI tumour cell line growth inhibition, 48 h
Compound,TGI,GI50
CN1c2ccc(Cl)cc2C(=O)NC1c1ccc([N+](=O)[O-])s1 (centres undefined),39.1 µM,–
c1cc(CNC23CC4CC(CC(C4)C2)C3)cc(C[N+](Cc2cccc(CNC34CC5CC(CC(C5)C3)C4)c2)(Cc2cccc(CNC34CC5CC(CC(C5)C3)C4)c2)Cc2cccc(CNC34CC5CC(CC(C5)C3)C4)c2)c1 (centres undefined),11.8 µM,3.58 µM
CN(C)C(=O)c1cc2cnc(Nc3ccc(-c4csc5c(=S)cc(N6CCOCC6)oc45)cc3)nc2n1C1CCCC1,> 50 µM,0.515 µM
COC1=CC(=O)c2nc(-c3cccc(C)n3)[nH]c2C1=O,> 100 µM,33.4 µM

# System: NCI/ADR-RES ovarian
# Assay: NCI tumour cell line growth inhibition, 48 h
Compound,TGI,GI50
CN1c2ccc(Cl)cc2C(=O)NC1c1ccc([N+](=O)[O-])s1 (centres undefined),35.3 µM,–
c1cc(CNC23CC4CC(CC(C4)C2)C3)cc(C[N+](Cc2cccc(CNC34CC5CC(CC(C5)C3)C4)c2)(Cc2cccc(CNC34CC5CC(CC(C5)C3)C4)c2)Cc2cccc(CNC34CC5CC(CC(C5)C3)C4)c2)c1 (centres undefined),19 µM,6.01 µM
CN(C)C(=O)c1cc2cnc(Nc3ccc(-c4csc5c(=S)cc(N6CCOCC6)oc45)cc3)nc2n1C1CCCC1,> 50 µM,1.02 µM
COC1=CC(=O)c2nc(-c3cccc(C)n3)[nH]c2C1=O,> 100 µM,32.5 µM

# System: COLO 205 colon
# Assay: NCI tumour cell line growth inhibition, 48 h
Compound,TGI,GI50
CN1c2ccc(Cl)cc2C(=O)NC1c1ccc([N+](=O)[O-])s1 (centres undefined),66.4 µM,–
c1cc(CNC23CC4CC(CC(C4)C2)C3)cc(C[N+](Cc2cccc(CNC34CC5CC(CC(C5)C3)C4)c2)(Cc2cccc(CNC34CC5CC(CC(C5)C3)C4)c2)Cc2cccc(CNC34CC5CC(CC(C5)C3)C4)c2)c1 (centres undefined),13.1 µM,4.57 µM
CN(C)C(=O)c1cc2cnc(Nc3ccc(-c4csc5c(=S)cc(N6CCOCC6)oc45)cc3)nc2n1C1CCCC1,–,0.214 µM
COC1=CC(=O)c2nc(-c3cccc(C)n3)[nH]c2C1=O,67.7 µM,26.5 µM

# System: SNB-19 CNS
# Assay: NCI tumour cell line growth inhibition, 48 h
Compound,TGI,GI50
CN1c2ccc(Cl)cc2C(=O)NC1c1ccc([N+](=O)[O-])s1 (centres undefined),> 100 µM,–
c1cc(CNC23CC4CC(CC(C4)C2)C3)cc(C[N+](Cc2cccc(CNC34CC5CC(CC(C5)C3)C4)c2)(Cc2cccc(CNC34CC5CC(CC(C5)C3)C4)c2)Cc2cccc(CNC34CC5CC(CC(C5)C3)C4)c2)c1 (centres undefined),30.4 µM,8.05 µM
CN(C)C(=O)c1cc2cnc(Nc3ccc(-c4csc5c(=S)cc(N6CCOCC6)oc45)cc3)nc2n1C1CCCC1,> 34.5 µM,0.498 µM
COC1=CC(=O)c2nc(-c3cccc(C)n3)[nH]c2C1=O,60.6 µM,23.3 µM

# System: 786-0 renal
# Assay: NCI tumour cell line growth inhibition, 48 h
Compound,TGI,GI50
CN1c2ccc(Cl)cc2C(=O)NC1c1ccc([N+](=O)[O-])s1 (centres undefined),30.8 µM,–
c1cc(CNC23CC4CC(CC(C4)C2)C3)cc(C[N+](Cc2cccc(CNC34CC5CC(CC(C5)C3)C4)c2)(Cc2cccc(CNC34CC5CC(CC(C5)C3)C4)c2)Cc2cccc(CNC34CC5CC(CC(C5)C3)C4)c2)c1 (centres undefined),7.75 µM,3.55 µM
CN(C)C(=O)c1cc2cnc(Nc3ccc(-c4csc5c(=S)cc(N6CCOCC6)oc45)cc3)nc2n1C1CCCC1,> 50 µM,0.63 µM
COC1=CC(=O)c2nc(-c3cccc(C)n3)[nH]c2C1=O,46.3 µM,19.8 µM

# System: HOP-62 NSCLC
# Assay: NCI tumour cell line growth inhibition, 48 h
Compound,TGI,GI50
CN1c2ccc(Cl)cc2C(=O)NC1c1ccc([N+](=O)[O-])s1 (centres undefined),59.6 µM,–
c1cc(CNC23CC4CC(CC(C4)C2)C3)cc(C[N+](Cc2cccc(CNC34CC5CC(CC(C5)C3)C4)c2)(Cc2cccc(CNC34CC5CC(CC(C5)C3)C4)c2)Cc2cccc(CNC34CC5CC(CC(C5)C3)C4)c2)c1 (centres undefined),42.1 µM,11.1 µM
CN(C)C(=O)c1cc2cnc(Nc3ccc(-c4csc5c(=S)cc(N6CCOCC6)oc45)cc3)nc2n1C1CCCC1,> 50 µM,0.694 µM
COC1=CC(=O)c2nc(-c3cccc(C)n3)[nH]c2C1=O,35.9 µM,18.7 µM

# System: HL-60(TB) leukemia
# Assay: NCI tumour cell line growth inhibition, 48 h
Compound,TGI,GI50
CN1c2ccc(Cl)cc2C(=O)NC1c1ccc([N+](=O)[O-])s1 (centres undefined),49.3 µM,–
c1cc(CNC23CC4CC(CC(C4)C2)C3)cc(C[N+](Cc2cccc(CNC34CC5CC(CC(C5)C3)C4)c2)(Cc2cccc(CNC34CC5CC(CC(C5)C3)C4)c2)Cc2cccc(CNC34CC5CC(CC(C5)C3)C4)c2)c1 (centres undefined),11.3 µM,3.64 µM
CN(C)C(=O)c1cc2cnc(Nc3ccc(-c4csc5c(=S)cc(N6CCOCC6)oc45)cc3)nc2n1C1CCCC1,1.97 µM,0.264 µM
COC1=CC(=O)c2nc(-c3cccc(C)n3)[nH]c2C1=O,> 100 µM,76.4 µM
